ChEMBL document CHEMBL1149847, “Erigeroflavanone, a flavanone derivative from the flowers of Erigeron annuus with protein glycation and aldose reductase inhibitory activity” (J Nat Prod, 2008)

Assays:
[1] = Inhibition of advanced glycation end products formation after 14 days; format: physicochemical
[2] = target: Aldo-keto reductase family 1 member B1 (Rattus norvegicus, UniProt P07943); test: Inhibition of rat lens aldose reductase

Compound: O=C(O)[C@H]1O[C@@H](Oc2cc(O)c3c(=O)cc(-c4ccc(O)cc4)oc3c2)[C@H](O)[C@@H](O)[C@@H]1O
- IC50 [1]: 107 µM
- IC50 [2]: 1.28 µM

Compound: COC(=O)[C@H]1O[C@@H](Oc2cc(O)c3c(=O)cc(-c4ccc(O)cc4)oc3c2)[C@H](O)[C@@H](O)[C@@H]1O
- IC50 [2]: 9.02 µM

Compound: COC(=O)C[C@]1(O)C(=O)c2c(O)cc(O)cc2O[C@]1(OC)c1ccc(O)c(O)c1 (relative stereo) [ERIGEROFLAVANONE]
- IC50 [2]: 46.9 µM

Compound: O=c1cc(-c2ccc(O)cc2)oc2cc(O)cc(O)c12 [APIGENIN]
- IC50 [1]: 89.9 µM
- IC50 [2]: 6.67 µM

Compound: O=c1c(O[C@@H]2O[C@H](CO)[C@@H](O)[C@H](O)[C@H]2O)c(-c2ccc(O)cc2)oc2cc(O)cc(O)c12 [ASTRAGALIN]
- IC50 [1]: 179 µM

Compound: O=c1c(O)c(-c2ccc(O)cc2)oc2cc(O)cc(O)c12 [KAEMPFEROL]
- IC50 [2]: 1.33 µM

Compound: N=C(N)NN [PIMAGEDINE]
- IC50 [1]: 961 µM

Compound: C[C@@H]1O[C@@H](Oc2c(-c3ccc(O)c(O)c3)oc3cc(O)cc(O)c3c2=O)[C@H](O)[C@H](O)[C@H]1O [QUERCITRIN]
- IC50 [2]: 0.16 µM
